Paper PMC12921513 (ACS Bio & Med Chem Au, 2025)
Values joined by “and” are separate entries in the source; they are usually repeats but may differ in a detail not shown here. Equal entries are not always repeated.

Each compound was assayed on SaFabI (assay: SaFabI fluorescence intensity counter-screen). Conditions: 30 μM inhibitor, 200 nM enzyme.
Experimental: A similar fluorescence intensity assay was utilized to counter-screen against S. aureus (SaFabI) to determine the degree of selectivity for FabK over FabI.
The SaFabI assay was conducted as follows. Reactions were carried out at 25 °C in the assay buffer (50 mM MES pH 5.5, 100 mM NaCl). […] The oxidation of NADPH to NADP^+ was measured by tracking fluorescence (340 nm/460 nm) with a Biotek Synergy H1 microplate reader in 15 s intervals for a total of 10 min to monitor the rate of reaction. Reaction was conducted in Greiner Bio-One 384-Well μClear Bottom Polystyrene Microplates. The percent inhibition of each compound was calculated on the basis of the resulting velocity.
In the case of `CS(=O)(=O)c1ccc2nc(NC(=O)NCc3nc(-c4ccc(Br)cc4)c[nH]3)sc2c1` [compound 2], the “SaFabI % inhibition, 30 μM” value is reported as 21.0%.
For `O=C(NCc1nc(-c2ccc(Br)cc2)c[nH]1)Nc1nc2cc(Cl)ccc2s1` [compound 3], the “SaFabI % inhibition, 30 μM” value was 9.8%.
With `O=C(NCc1nc(-c2ccc(Br)cc2)c[nH]1)Nc1nc2cccc(C(F)(F)F)c2s1` [compound 4] the “SaFabI % inhibition, 30 μM” value was 18%.
In the case of `Oc1cc(Cl)ccc1Oc1ccc(Cl)cc1Cl` [triclosan, reference compound], the “SaFabI % inhibition, 30 μM” value is reported as 99% and 99.9%.
